The results in this text go back to ChEMBL document CHEMBL2057160, “Experimental and 'in silico' analysis of the effect of pH on HIV-1 protease inhibitor affinity: implications for the charge state of the protein ionogenic groups” (Bioorg Med Chem, 2012).

The target in experiment [1] is T1, Protease (Human immunodeficiency virus 1, UniProt Q9YQ12). The experiment can be described thus: Binding affinity to Human immunodeficiency virus 1 protease by SPR biosensor interaction analysis at pH 7.4.
Experiment [2] addresses T1, Protease. Nature of the experiment: Binding affinity to Human immunodeficiency virus 1 protease by SPR biosensor interaction analysis at pH 5.1.
In experiment [3] the target is T1, Protease. The experiment can be described thus: Binding affinity to Human immunodeficiency virus 1 protease by SPR biosensor interaction analysis at pH 4.1.

T1 sequence (Q9YQ12 whole entry): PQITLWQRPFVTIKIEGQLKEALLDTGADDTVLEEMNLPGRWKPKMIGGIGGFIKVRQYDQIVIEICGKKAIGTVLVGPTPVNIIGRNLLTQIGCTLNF

Turning to `Cc1c(O)cccc1C(=O)N[C@@H](CSc1ccccc1)[C@H](O)CN1C[C@H]2CCCC[C@H]2C[C@H]1C(=O)NC(C)(C)C`, the Kd turned out to be 3.4 nM on Protease [1], 2.99 nM at Protease [2] and 37.6 nM at Protease [3].

With `O=C1N(Cc2ccc(CO)cc2)[C@H](COc2ccccc2)[C@H](O)[C@@H](O)[C@@H](COc2ccccc2)N1Cc1ccc(CO)cc1`, the Kd at Protease [1] was 6.95 nM; at Protease [2], 1.84 nM; at Protease [3] it was 1.83 nM.

As to `CC(=O)N[C@H](C(=O)N[C@H](C(=O)N[C@@H](CC(C)C)[C@@H](O)CC(=O)N[C@@H](C)C(=O)N[C@@H](CC(C)C)[C@@H](O)CC(=O)O)C(C)C)C(C)C` [ACETYLPEPSTATIN], the results for the Kd at Protease [1], on Protease [2] and at Protease [3] were 8150 nM, 759 nM and 208 nM, respectively.

`CNC(=O)[C@@H](NC(=O)[C@H](OCc1ccccc1)[C@H](O)[C@@H](O)[C@@H](OCc1ccccc1)C(=O)N[C@H](C(=O)NC)C(C)C)C(C)C`: the Kd on Protease [1] amounted to 10.8 nM; at Protease [2] it was 3 nM; on Protease [3], 2.97 nM.

Regarding `O=C(N[C@H]1c2ccccc2C[C@H]1O)[C@H](OCc1ccccc1)[C@H](O)[C@@H](O)[C@@H](OCc1ccccc1)C(=O)N[C@H]1c2ccccc2C[C@H]1O`, the Kd at Protease [1] came out at 13.9 nM; on Protease [2], 1 nM; at Protease [3], 1.14 nM.
